From the NIST ThermoML archive (doi:10.1021/je700577t)
± gives the expanded uncertainty stated by the source.

Tests used:
[1] = 101.33 kPa, Liquid
[2] = refractive index (Na D-line) (dimensionless); conditions: 101.33 kPa, Liquid, Standard Abbe refractometry

| SMILES | mass density ([1]; 293.15 K) [kg/m3] | refractive index ([2]; 293.15 K) | mass density ([1]; 294 K) [kg/m3] | refractive index ([2]; 292 K) | mass density ([1]; 288 K) [kg/m3] |
| --- | --- | --- | --- | --- | --- |
| OCCO [1,2-ethanediol] | 1115.52 ± 0.71 | 1.43184 ± 0.0007 |  |  |  |
| CC(O)CO (configuration not stated) [1,2-propanediol] | 1032.83 ± 0.48 | 1.43143 ± 0.0007 |  |  |  |
| C=C(C)C1CC=C(C)CC1 (configuration not stated) [1-methyl-4-(1-methylethenyl)cyclohexene] |  |  | 840.24 ± 2.8 | 1.47247 ± 0.0009 |  |
| C=CC(C)(O)CCC=C(C)C (configuration not stated) [3,7-dimethyl-1,6-octadien-3-ol] |  | 1.46272 ± 0.0009 |  |  | 870.04 ± 2.7 |
| OCCOCCO [diethylene glycol] |  | 1.44724 ± 0.0007 |  |  | 1119.74 ± 0.72 |
| OCCOCCOCCO [triethylene glycol] |  | 1.45314 ± 0.0007 |  |  | 1127.43 ± 0.74 |
